From patent US3960834A, “Method for preparing 3-(methylmercaptol) propylaminobleomycin” (priority 1973, dated 1976) come the findings set out here.

Where two headings read alike, the source gives them in different places.

Data set [1] has as its system Ehrlich ascites carcinoma cells. The settings on record: for Mean surviving days: intraperitoneally once a day for 10 days, observed up to 50 days; for ED50: Table 3, maximum dose level at which they survive 100 to 200% of the survival days for the control; for LD50 /ED50 = Index: mouse, in vivo, ip.
For data set [2], the system named is Mycobacterium smegmatis 607. As to the kind of experiment: antimicrobial activity against Mycobacterium smegmatis 607. In kind it is cell-based.
Data set [3] deals with ICR mouse bearing cancer. Here is the method: Mice of ICR/JCL strain (male 5 weeks old, five for one group) are inoculated with Ehrlich ascites carcinoma cells in a dose of 2 millions/mouse.
LD50 is calculated by Behrens-Karber's method from the group poisoned at high dose levels.

The nature of data set [4]: solubility. In kind it is physicochemical.
For data set [5], the system named is Ehrlich ascites carcinoma cells. The data set can be described thus: animal or person. Particulars: Mus musculus, ip.
[6] abbreviates: ICR mouse bearing cancer, daily intraperitoneal administration for 10 days.
The mark [7] stands for this setting: Table 3, Behrens-Karber's method, from the group poisoned at high dose levels.

Consider “3-(S,S-dimethylmercapto)propylaminobleomycin [Bleomycin A2, reference compound]”, for which the Mean surviving days in data set [1] (0.19 mg/kg) is reported as 13.6 days; in data set [1] (0.39 mg/kg), 15.4 days; in data set [1] (0.78 mg/kg) it was 17.2 days; in data set [1] (1.56 mg/kg) it was > 33 days; in data set [1] (3.12 mg/kg), > 36 days; in data set [1] (6.25 mg/kg), > 28.4 days. In addition, the Mean surviving days in data set [1] (12.5 mg/kg) was 25 days; in data set [1] (25 mg/kg), 10.8 days. The compound also had an ED50 in data set [1] of 0.78. Further, the “LD50 /ED50 = Index” value in data set [1] is 12. Moreover, the “antimicrobial activity (potency)” value in data set [2] is reported as 1000 mcg potency/mg. In addition, the LD50 in data set [3] (setting [6]) is on record as 12.5 mg/kg; in data set [3] (setting [7]) it was 9.4.
As to `CSCCCNC(=O)c1csc(-c2csc(CCNC(=O)[C@@H](NC(=O)[C@@H](C)[C@H](O)[C@@H](C)NC(=O)[C@@H](NC(=O)c3nc([C@H](CC(N)=O)NC[C@H](N)C(N)=O)nc(N)c3C)[C@@H](O[C@@H]3O[C@@H](CO)[C@@H](O)[C@H](O)[C@@H]3O[C@H]3O[C@H](CO)[C@@H](O)[C@H](OC(N)=O)[C@@H]3O)c3cnc[nH]3)[C@@H](C)O)n2)n1` [Demethylbleomycin A2, 3-(methylmercapto)propylaminobleomycin], the Mean surviving days came to 20.2 days in data set [1] (0.19 mg/kg); 24.0 days in data set [1] (0.39 mg/kg); 31.2 days in data set [1] (0.78 mg/kg); 28.6 days in data set [1] (1.56 mg/kg); 34.6 days in data set [1] (3.12 mg/kg); 49 days in data set [1] (6.25 mg/kg). The Mean surviving days is 40.5 days in data set [1] (12.5 mg/kg) and 29.0 days in data set [1] (25 mg/kg). The ED50 in data set [1] was 0.78. Further, the “LD50 /ED50 = Index” value in data set [1] was 23. In data set [4] (ethanol, propanol, butanol, ethyl acetate, ether, acetone, petroleum ether, benzene, and toluene), the “solubility in organic solvents” value is “insoluble”. In data set [4] (water and methanol), the “solubility in water and methanol” value is listed as “soluble”. In addition, the “antimicrobial activity (potency)” value in data set [2] is 2,458 mcg potency/mg. In addition, the values for the LD50 in data set [3] (setting [6]) and in data set [3] (setting [7]) were 22.5 mg/kg and 18.0, respectively. In addition, the “toxicity compared with bleomycin A2” value in data set [3] (from LD50, ICR mouse bearing cancer, daily intraperitoneal for 10 days) was “decreased to about half as much”.
`CO[C@@]12[C@H](COC(N)=O)C3=C(C(=O)C(C)=C(N)C3=O)N1C[C@@H]1N[C@@H]12` [Mitomycin C] registered an ED50 in data set [5] of 0.39 mg/kg.
